Data from patent publication EP0584797A2, “Novel cephalosporin compounds and processes for the preparation thereof” (LUCKY LTD., priority 1992, dated 1994).
Converted amounts (≈) assume the structure as drawn.

How the values were obtained:
Experiment in all cases: minimal inhibitory concentration, two-fold agar dilution
Format in all cases: cell-based
[1] = system: Pseudomonas aeruginosa ATCC 25619; details: ATCC25619, Muller-Hinton agar, 37°C, 20 hours, read-out: MIC values against the standard strains
Description: (§1) These MIC values were taken by employing a two-fold dilution method: that is, two-fold serial dilutions of each of the test compounds were made and dispersed in a Muller-Hinton agar medium; 2µl of the standard test strain which had the 10⁷ CFU(Colony Forming Unit) per ml was inoculated on the medium; and these were incubated at 37°C for 20 hours.

[2] = system: Serratia marcescens ATCC 27117; details: ATCC27117, Muller-Hinton agar, 37°C, 20 hours, read-out: MIC values against the standard strains
Description: as §1

[3] = system: Klebsiella pneumoniae ATCC 10031; details: ATCC10031, Muller-Hinton agar, 37°C, 20 hours, read-out: MIC values against the standard strains
Description: as §1

[4] = system: Providencia rettgeri ATCC 9250; details: ATCC9250, Muller-Hinton agar, 37°C, 20 hours, read-out: MIC values against the standard strains
Description: as §1

[5] = system: Escherichia coli ATCC 25922; details: ATCC25922, Muller-Hinton agar, 37°C, 20 hours, read-out: MIC values against the standard strains
Description: as §1

[6] = system: Staphylococcus aureus ATCC 6538p; details: ATCC6538P, Muller-Hinton agar, 37°C, 20 hours, read-out: MIC values against the standard strains
Description: as §1

[7] = system: Shigella flexneri ATCC 11836; details: ATCC11836, Muller-Hinton agar, 37°C, 20 hours, read-out: MIC values against the standard strains
Description: as §1

[8] = system: Proteus vulgaris ATCC 6059; details: ATCC6059, Muller-Hinton agar, 37°C, 20 hours, read-out: MIC values against the standard strains
Description: as §1

[9] = system: Pseudomonas aeruginosa ATCC 10145; details: ATCC10145, Muller-Hinton agar, 37°C, 20 hours, read-out: MIC values against the standard strains
Description: as §1

[10] = system: Citrobacter freundii ATCC 8090; details: ATCC8090, Muller-Hinton agar, 37°C, 20 hours, read-out: MIC values against the standard strains
Description: as §1

[11] = system: Shigella sonnei ATCC 11060; details: ATCC11060, Muller-Hinton agar, 37°C, 20 hours, read-out: MIC values against the standard strains
Description: as §1

[12] = system: Enterobacter aerogenes ATCC 29751; details: Klebsiella aerogenes, ATCC29751; Muller-Hinton agar; 37°C; 20 hours; read-out: MIC values against the standard strains
Description: as §1

[13] = system: Streptococcus faecalis ATCC 29212; details: Enterococcus faecalis, ATCC29212; Muller-Hinton agar; 37°C; 20 hours; read-out: MIC values against the standard strains
Description: as §1

[14] = system: Proteus mirabilis ATCC 25933; details: ATCC25933, Muller-Hinton agar, 37°C, 20 hours, read-out: MIC values against the standard strains
Description: as §1

[15] = system: Bacillus megaterium ATCC 9885; details: Priestia megaterium, ATCC9885; Muller-Hinton agar; 37°C; 20 hours; read-out: MIC values against the standard strains
Description: as §1

[16] = system: Escherichia coli ATCC 10536; details: ATCC10536, Muller-Hinton agar, 37°C, 20 hours, read-out: MIC values against the standard strains
Description: as §1

[17] = system: Acinetobacter calcoaceticus ATCC 15473; details: ATCC15473, Muller-Hinton agar, 37°C, 20 hours, read-out: MIC values against the standard strains
Description: as §1

[18] = system: Micrococcus luteus ATCC 9341; details: ATCC9341, Muller-Hinton agar, 37°C, 20 hours, read-out: MIC values against the standard strains
Description: as §1

[19] = system: Enterobacter cloacae ATCC 27508; details: ATCC27508, Muller-Hinton agar, 37°C, 20 hours, read-out: MIC values against the standard strains
Description: as §1

[20] = system: Salmonella typhimurium ATCC 14028; details: Salmonella enterica; Muller-Hinton agar; 37°C; 20 hours; read-out: MIC values against the standard strains
Description: as §1

[21] = system: Morganella morganii ATCC 8076h; details: ATCC8076H, Muller-Hinton agar, 37°C, 20 hours, read-out: MIC values against the standard strains
Description: as §1

[22] = system: Pseudomonas aeruginosa ATCC 27853; details: ATCC27853, Muller-Hinton agar, 37°C, 20 hours, read-out: MIC values against the standard strains
Description: as §1

[23] = system: Bacillus cereus ATCC 11778; details: ATCC11778, Muller-Hinton agar, 37°C, 20 hours, read-out: MIC values against the standard strains
Description: as §1

[24] = system: Staphylococcus epidermidis ATCC 12228; details: ATCC12228, Muller-Hinton agar, 37°C, 20 hours, read-out: MIC values against the standard strains
Description: as §1

[25] = system: Staphylococcus aureus ATCC 10537; details: ATCC10537, Muller-Hinton agar, 37°C, 20 hours, read-out: MIC values against the standard strains
Description: as §1

Structure (SMILES)	MIC [1] [µg/mL]	MIC [2] [µg/mL]	MIC [3] [µg/mL]	MIC [4] [µg/mL]	MIC [5] [µg/mL]	MIC [6] [µg/mL]	MIC [7] [µg/mL]	MIC [8] [µg/mL]	MIC [9] [µg/mL]	MIC [10] [µg/mL]	MIC [11] [µg/mL]	MIC [12] [µg/mL]	MIC [13] [µg/mL]	MIC [14] [µg/mL]	MIC [15] [µg/mL]	MIC [16] [µg/mL]	MIC [17] [µg/mL]	MIC [18] [µg/mL]	MIC [19] [µg/mL]	MIC [20] [µg/mL]	further results
CCO/N=C(\C(=O)N[C@@H]1C(=O)N2C(C(=O)[O-])=C(CSc3nc(N)cc(NC)[n+]3C)CS[C@H]12)c1csc(N)n1 [Example 36, 7-[(Z)-2-(2-aminothiazol-4-yl)-2-(ethoxyimino)acetamido]-3-(4-amino-6-methylamino-1-methylpyrimidinium-2-yl)thiomethyl-3-cephem-4-carboxylate]	0.5 (≈ 0.863 µM)	0.13 (≈ 0.224 µM)	≤ 0.008	≤ 0.008	0.063 (≈ 0.109 µM)	0.25 (≈ 0.431 µM)	≤ 0.008	0.25 (≈ 0.431 µM)	8 (≈ 13.8 µM)	0.016 (≈ 0.0276 µM)	0.063 (≈ 0.109 µM)	0.13 (≈ 0.224 µM)	32 (≈ 55.2 µM)	0.25 (≈ 0.431 µM)	0.063 (≈ 0.109 µM)	0.031 (≈ 0.0535 µM)	4 (≈ 6.9 µM)	≤ 0.008	≤ 0.008	0.13 (≈ 0.224 µM)	MIC [21]: 0.016 µg/mL (≈ 0.0276 µM); MIC [22]: 4 µg/mL (≈ 6.9 µM); MIC [23]: 32 µg/mL (≈ 55.2 µM); MIC [24]: 0.031 µg/mL (≈ 0.0535 µM); MIC [25]: 0.13 µg/mL (≈ 0.224 µM)
CCO/N=C(\C(=O)N[C@@H]1C(=O)N2C(C(=O)[O-])=C(CSc3nc(N)cc[n+]3N)CS[C@H]12)c1csc(N)n1 [Example 42, 7-[(Z)-2-(2-aminothiazol-4-yl)-2-(ethoxyimino)acetamido]-3-(1,4-diaminopyrimidinium-2-yl)thiomethyl-3-cephem-4-carboxylate]	0.5 (≈ 0.906 µM)	0.5 (≈ 0.906 µM)	≤ 0.008	0.063 (≈ 0.114 µM)	0.031 (≈ 0.0562 µM)	0.13 (≈ 0.236 µM)	0.25 (≈ 0.453 µM)	1 (≈ 1.81 µM)	8 (≈ 14.5 µM)	0.063 (≈ 0.114 µM)	0.25 (≈ 0.453 µM)	0.13 (≈ 0.236 µM)	8 (≈ 14.5 µM)	1 (≈ 1.81 µM)	0.063 (≈ 0.114 µM)	0.031 (≈ 0.0562 µM)	4 (≈ 7.25 µM)	≤ 0.008	≤ 0.008	0.5 (≈ 0.906 µM)	MIC [21]: 0.25 µg/mL (≈ 0.453 µM); MIC [22]: 4 µg/mL (≈ 7.25 µM); MIC [23]: 32 µg/mL (≈ 58 µM); MIC [24]: 0.031 µg/mL (≈ 0.0562 µM); MIC [25]: 0.13 µg/mL (≈ 0.236 µM)
CC(C)(O/N=C(\C(=O)N[C@@H]1C(=O)N2C(C(=O)[O-])=C(CSc3nc(N)cc[n+]3N)CS[C@H]12)c1csc(N)n1)C(=O)O [Example 43]	1 (≈ 1.64 µM)	0.13 (≈ 0.213 µM)	0.063 (≈ 0.103 µM)	≤ 0.008	0.063 (≈ 0.103 µM)	8 (≈ 13.1 µM)	0.031 (≈ 0.0508 µM)	0.031 (≈ 0.0508 µM)	2 (≈ 3.28 µM)	0.063 (≈ 0.103 µM)	0.063 (≈ 0.103 µM)	0.5 (≈ 0.82 µM)	> 128	0.031 (≈ 0.0508 µM)	0.5 (≈ 0.82 µM)	0.063 (≈ 0.103 µM)	2 (≈ 3.28 µM)	0.5 (≈ 0.82 µM)	≤ 0.008	0.13 (≈ 0.213 µM)	MIC [21]: ≤ 0.008 µg/mL; MIC [22]: 1 µg/mL (≈ 1.64 µM); MIC [23]: 128 µg/mL (≈ 210 µM); MIC [24]: 2 µg/mL (≈ 3.28 µM); MIC [25]: 2 µg/mL (≈ 3.28 µM)
